# Source: article PMC4906374, “Global Profiling and Inhibition of Protein Lipidation in Vector and Host Stages of the Sleeping Sickness Parasite Trypanosoma brucei” (ACS Infectious Diseases, 2016)
# Target: T1, TbNMT (Trypanosoma brucei, UniProt Q388H8)
# T1 construct: gene Tb10.61.2550; native full-length enzyme in intact bloodstream form parasites; not purified
# T1 sequence (Q388H8 1-446): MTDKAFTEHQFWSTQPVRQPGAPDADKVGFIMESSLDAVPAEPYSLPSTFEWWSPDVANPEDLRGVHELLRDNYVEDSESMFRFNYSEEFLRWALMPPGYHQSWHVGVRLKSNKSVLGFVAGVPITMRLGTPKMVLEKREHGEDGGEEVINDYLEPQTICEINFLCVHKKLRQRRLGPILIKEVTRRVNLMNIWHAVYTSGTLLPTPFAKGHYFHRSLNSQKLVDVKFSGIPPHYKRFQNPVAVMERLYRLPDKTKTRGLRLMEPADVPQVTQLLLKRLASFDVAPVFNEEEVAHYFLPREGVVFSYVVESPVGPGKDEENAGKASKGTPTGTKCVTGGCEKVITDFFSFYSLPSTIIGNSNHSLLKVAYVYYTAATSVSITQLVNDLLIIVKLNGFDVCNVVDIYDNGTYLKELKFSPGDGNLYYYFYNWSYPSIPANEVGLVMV
# Assay: in-gel fluorescence of YnMyr tagging (CuAAC, NaOH-treated gels) in intact BSF parasites
# Format: cell-based
# Settings: read-out: TC50 (tagging-IC50); 100 uM YnMyr, 1 h inhibitor pretreatment, 8 h labelling, 37 °C; whole-parasite value, not isolated enzyme
compound,measurement,value
"Cc1noc(C)c1NS(=O)(=O)c1c(Cl)cc(-c2ccnc(N3CCNCC3)c2)cc1Cl [compound 2, inhibitor 2]",IC50,2570 ± 40 nM
